# According to ChEMBL document CHEMBL2384975, “Combination Therapy: JAK PI3K/mTOR. A Novel Approach for Cancer Treatment” (2013):
# Key:
# Format in all cases: functional, BaF3
# [1] = Anticancer activity against mouse BA/F3 cells expressing JAK2 V617F mutation allografted in Harlan SCID mouse assessed as mean survival days at 45 mg/kg, po by luciferase reporter gene assay (reference value: 16 days)
# [2] = Anticancer activity against mouse BA/F3 cells expressing JAK2 V617F mutation allografted in Harlan SCID mouse assessed as increase in lifespan at 45 mg/kg, po by luciferase reporter gene assay relative to control
# [3] = Anticancer activity against mouse BA/F3 cells expressing JAK2 V617F mutation allografted in Harlan SCID mouse assessed as mean survival days at 60 mg/kg, po by luciferase reporter gene assay (reference value: 16 days)
# [4] = Anticancer activity against mouse BA/F3 cells expressing JAK2 V617F mutation allografted in Harlan SCID mouse assessed as increase in lifespan at 60 mg/kg, po by luciferase reporter gene assay relative to control
SMILES,MSD [1],Activity [2],MSD [3],Activity [4]
Cn1c(=O)n(-c2ccc(C(C)(C)C#N)cc2)c2c3cc(-c4cnc5ccccc5c4)ccc3ncc21 [DACTOLISIB],24 days,42%,–,–
N#CC[C@H](C1CCCC1)n1cc(-c2ncnc3[nH]ccc23)cn1 [RUXOLITINIB],–,–,19 days,19%
